For the test, the system named is Keratinocytes. Nature of the test: Keratinocyte proliferation, BrdU uptake. The format is cell-based. The settings on record: Homo sapiens, serum activated, read-out: IC50 of stimulated cells. The procedure:
Primary human keratinocytes were maintained in keratinocyte growth medium (KGM): DMEM, 25% Nutrient mixture F-12 (HAM), 10% fetal bovine serum, 5 μg/ml insulin, 0.4 μg/ml hydrocortisone, 0.1 nM cholera toxin, 10 ng/ml epidermal growth factor, 1.8×10^−4 M adenine, 5 μg/ml transferrin, 2 nM T3, 100,000 U/l penicillin, […] streptomycin, 0.1 mg/ml amphotericin. The primary keratinocytes were cultured from small biopsy specimens.
Cells were depleted of fetal calf serum (FCS) for 12 hours. They were then stimulated to proliferate by addition of ConA (10 μg/ml) for PBMC from healthy individuals and for Jurkat cells, FCS (10%) for HEK293 and A375 cells, PDGF (30 ng/ml) for NIH 3T3 cells, and EGF (30 ng/ml) for MDA-MB-231, Cells (1×10^5) were cultured in 96-well plates for 3 days in the presence or absence of inhibitors at the concentrations specified in the text. Each condition was tested in duplicate wells.
Proliferation was assessed by BrdU incorporation using a colorimetric ELISA kit (Roche, Germany). Subsequent to labeling with 10 μM BrdU, DNA was denatured and the cells were incubated with anti-BrdU-POD, prior to the addition of colorimetric substrate (TMB). The reaction product was quantified by measuring absorbance at 450 nm in an ELISA plate reader (ELx800 BIO-TEK Instruments Inc.). […]

The structures appear in SMILES notation. A value given as a limit tells only on which side of the number the result lay.

For orientation: IC50 means the concentration needed to halve the response being measured. In the case of `COc1cc(-c2nc(Nc3ccc(C)cc3)c3ccccc3n2)cc(OC)c1OC` [Compound 2, N-p-tolyl-2-(3,4,5-trimethoxyphenyl)quinazolin-4-amine], the IC50 was over 10 µM.

The record behind these values is patent US8759363B2, “Quinazoline-based T cell proliferation inhibitors” (Yissum Research Development Company of the Hebrew …, priority 2010, dated 2014).
